Results as given in patent US10632169B2, “Methods of using GM604 in modulating ALS disease biomarkers leading to prognosis and therapeutic treatment for ALS disease” (Genervon Biopharmaceuticals, LLC, priority 2015, dated 2020).
Residues, ends and D or L forms follow the SMILES beside them.

How the values were obtained:
[1] = tested on: anterior horn motor neurons isolated from rat lumbar spinal cord explants; conditions: naturally occurring and recombinant MNTF1; U.S. Pat. No. 6,309,877; cited from earlier work
surviving motor neurons = conditions: in vivo administration; blocked by anti-MNTF1 monoclonal antibody; cited from earlier work
[2] = GALS-001 Phase 2A trial, safety and tolerability; assay type: in vivo, human
Description: A total of twelve patients were enrolled in the ALS Phase 2A study. Six subjects enrolled at Site 1 and six subjects enrolled at Site 2. Dosing was by slow bolus intravenous administration, once a day for 3 times a week for 2 weeks. Eight patients were randomized to receive 320 mg GM604 per dose and four patients to receive placebo. Our inclusion/exclusion criteria required the ALS patients in the Phase 2A trial to be “definite” ALS sufferers according to El Escorial criteria (i.e., the disease progression must involve upper and lower motoneuron and the bulbar region) who had experienced disease onset within 24 months prior to the beginning of the trial. The goal is to enroll fast progressing patients. Our dosing regimen was delivered via intravenous bolus dosing three times a week (Monday, Wednesday, Friday) for two consecutive weeks, for a total of 6 doses. There was no dosing after the two weeks' treatment, and the patients were followed and evaluated for the next ten weeks. The clinical data for the ALSFRS-R, FVC, TUG, and the Grip Strength and HHD were measured at Baseline, Week 2, Week 6, and Week 12.
1. Safety and tolerability were evaluated based on the results of adverse events, vital signs, electrocardiography (ECG) measurements, physical and neurological examinations, safety laboratory monitoring, and hypersensitivity and injection site reactions.

[3] = GALS-C compassionate use, clinical observations; assay type: in vivo, human; conditions: during the GALS-C trial
Description: GALS Compassionate Use (GALS-C) A ALS patient was first diagnosed with the disease in Q1 2005 and by Q3 2008 was quadriplegic and on a ventilator. The FDA approved a compassionate-use application of the MNTF6mer known as GM604 for this patient (IND #120052) using a protocol that followed the Phase 2A trial. This program was thus dubbed GALS-C. GALS-C Study Design
8. Exploratory clinical outcome measures will include the rate of decline of the ALS Functional Rating Scale Revised (ALSFRS-R), Forced Vital Capacity (FVC), stabilization or improvement in any clonus or spasticity symptoms, speech, swallowing, drooling, lingual/oral muscle, improved time off vent (self-breathing) and any movement or increase movement of any muscle groups. To estimate the participant's rate of progression prior to treatment, an ALSFRS-R of 48 will be assumed at date of symptom onset. There will be 2 weeks of active treatment, followed by 10 weeks of assessment without active treatment.
This compassionate trial follows the similar protocol and same dosing regimen as in the Phase 2A ALS trial. […]
Since the compassionate patient was very advanced, the usual clinical evaluations such as ALS functional rating scale (ALSFRS), forced vital capacity (FVC), and muscle strength were not used. […] The initial CSF before dosing and the CSF sample after the 6th dose were collected and analyzed. […]

[4] = shown in U.S. Pat. No. 8,673,852; cited from earlier work

Molecule: MNTF1: motoneuronotrophic factor isolated from rat muscle tissues; recombinant MNTF1-F6 encodes a 33 amino acid sequence (SEQ ID NO:1) (LGTFWGDTLNCWMLSAFSRYARCLAEGHDGPTQ)
- Survival in vitro of anterior horn motor neurons [1]: selectively enhance the survival
- Percentage of surviving motor neurons vs untreated controls (surviving motor neurons): markedly higher percentage of surviving motor neurons

Molecule: C[C@H](NC(=O)[C@H](Cc1ccc(O)cc1)NC(=O)[C@H](CCCNC(=N)N)NC(=O)[C@H](CO)NC(=O)[C@@H](N)Cc1ccccc1)C(=O)N[C@@H](CCCNC(=N)N)C(=O)O [GM604, FSRYAR] (H-FSRYAR-OH)
- Headache, GM604-treated patients ([2]; 2 patients of 8): 25%
- Puncture site pain, GM604-treated patients ([2]; 3 patients of 8): 37.5%
- Falls, GM604-treated patients ([2]; 4 patients of 8): 50%
- Patients with at least 1 Treatment-emergent adverse event (TEAE) ([2]; GM604 treatment group, placebo 4 out of 4): 5 out of 8
- Grade 1 hypersensitivity reactions ([2]; Visit 5, placebo 1 patient): 1 patient
- Clinical laboratory tests, hematology, urinalysis, ECGs, vital signs, physical and neurological findings vs placebo ([2]; changes over time): no clinically meaningful differences
- QT or QTcB result ([2]; no GM604 patient above this value): ≤ 450 ms
- Rash, GM604-treated patients ([2]; of 8): 2 patients
- Serious adverse events (SAE) ([2]; patient 0203, shortness of breath, judged unrelated to the investigational product): 1
- Deaths or withdrawals due to adverse events ([2]; whole study): No deaths or withdrawals due to adverse events occurred
- Adverse side effects [3]: no adverse side effects were noted
- Blood brain barrier penetration [4]: able to penetrate the blood brain barrier
